Laboratory results: ChEMBL document CHEMBL1132537, “A series of 6- and 7-piperazinyl- and -piperidinylmethylbenzoxazinones with dopamine D4 antagonist activity: discovery of a potential atypical antipsychotic agent” (J Med Chem, 1999)

Columns and labels:
D(4) dopamine receptor = molecular target: T1, D(4) dopamine receptor (Homo sapiens, UniProt P21917); assay: biochemical
T1 sequence (P21917 whole entry): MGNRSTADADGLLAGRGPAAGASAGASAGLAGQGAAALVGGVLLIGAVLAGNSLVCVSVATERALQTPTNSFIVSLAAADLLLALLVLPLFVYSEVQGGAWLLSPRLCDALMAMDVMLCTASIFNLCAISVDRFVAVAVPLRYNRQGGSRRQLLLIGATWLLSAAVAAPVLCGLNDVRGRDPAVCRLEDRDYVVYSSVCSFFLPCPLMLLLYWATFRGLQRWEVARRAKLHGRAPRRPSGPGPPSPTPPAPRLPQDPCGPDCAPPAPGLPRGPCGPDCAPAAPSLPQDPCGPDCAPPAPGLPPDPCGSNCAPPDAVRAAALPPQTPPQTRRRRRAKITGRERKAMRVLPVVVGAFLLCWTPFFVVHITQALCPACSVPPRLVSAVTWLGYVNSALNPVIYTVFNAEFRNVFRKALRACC
Description: Binding affinity at Dopamine receptor D4 in CHO cells by radioligand displacement.

D(3) dopamine receptor = D(3) dopamine receptor (Homo sapiens, UniProt P35462); assay: biochemical
Sequence of D(3) dopamine receptor (P35462 whole entry): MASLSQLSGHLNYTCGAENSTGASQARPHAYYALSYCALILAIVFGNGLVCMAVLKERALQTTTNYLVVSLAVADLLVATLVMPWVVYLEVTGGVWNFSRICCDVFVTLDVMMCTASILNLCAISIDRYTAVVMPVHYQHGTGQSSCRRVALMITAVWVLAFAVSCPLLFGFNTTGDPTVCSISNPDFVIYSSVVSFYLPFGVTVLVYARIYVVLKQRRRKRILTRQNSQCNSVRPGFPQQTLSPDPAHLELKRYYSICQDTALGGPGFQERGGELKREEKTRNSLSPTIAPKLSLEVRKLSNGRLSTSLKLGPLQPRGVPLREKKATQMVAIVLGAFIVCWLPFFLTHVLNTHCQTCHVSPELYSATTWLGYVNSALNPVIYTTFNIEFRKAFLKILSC
Description: Binding affinity at Dopamine receptor D3 in CHO cells by radioligand displacement.

Rattus norvegicus [1] = assay: Effect on Dopamine synthesis in rat Striatum(ST), measured as accumulation of DOPA(L-3,4-dihydroxyphenylalanine) at a peroral dose of 10 mg/kg; format: functional; settings: route oral
Rattus norvegicus [2] = assay: Effect on Dopamine synthesis in rat Hippocampus(HI), measured as accumulation of DOPA(L-3,4-dihydroxyphenylalanine) at a peroral dose of 10 mg/kg; format: functional; settings: route oral
Rattus norvegicus [3] = assay: Effect on Dopamine synthesis in rat Hippocampus(HI), measured as accumulation of DOPA(L-3,4-dihydroxyphenylalanine) at a peroral dose of 30 mg/kg; format: functional; settings: route oral
Rattus norvegicus [4] = assay: Effect on Dopamine synthesis in rat Striatum(ST), measured as accumulation of DOPA(L-3,4-dihydroxyphenylalanine) at a peroral dose of 30 mg/kg; format: functional; settings: route oral
Rattus norvegicus [5] = assay: Effect on Dopamine synthesis in rat Hippocampus(HI), measured as accumulation of DOPA(L-3,4-dihydroxyphenylalanine) at a peroral dose of 20 mg/kg; format: functional; settings: route oral
Rattus norvegicus [6] = assay: Effect on Dopamine synthesis in rat Striatum(ST), measured as accumulation of DOPA(L-3,4-dihydroxyphenylalanine) at a peroral dose of 20 mg/kg; format: functional; settings: route oral
[7] = molecular target: T2, 5-hydroxytryptamine receptor 1A (Homo sapiens, UniProt P08908); assay: Inhibition of [3H]- […] binding against human recombinant 5-hydroxytryptamine 1A receptor
T2 sequence (P08908 whole entry): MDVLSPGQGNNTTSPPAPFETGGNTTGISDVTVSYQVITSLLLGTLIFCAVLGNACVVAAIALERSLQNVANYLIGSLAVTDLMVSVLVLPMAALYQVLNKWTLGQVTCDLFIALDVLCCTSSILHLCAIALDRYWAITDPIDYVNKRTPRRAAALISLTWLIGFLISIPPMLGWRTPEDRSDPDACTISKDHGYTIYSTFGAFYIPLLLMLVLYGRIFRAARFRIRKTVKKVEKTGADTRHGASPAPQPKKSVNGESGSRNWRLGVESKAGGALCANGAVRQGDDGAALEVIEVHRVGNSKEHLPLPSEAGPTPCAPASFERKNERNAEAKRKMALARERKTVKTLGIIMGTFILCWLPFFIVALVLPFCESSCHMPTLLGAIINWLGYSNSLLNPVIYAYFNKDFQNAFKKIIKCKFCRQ

D(2) dopamine receptor = D(2) dopamine receptor (Homo sapiens, UniProt P14416); assay: Binding affinity at Dopamine receptor D2 in CHO cells by radioligand displacement.; format: cell-based
Sequence of D(2) dopamine receptor (P14416 whole entry): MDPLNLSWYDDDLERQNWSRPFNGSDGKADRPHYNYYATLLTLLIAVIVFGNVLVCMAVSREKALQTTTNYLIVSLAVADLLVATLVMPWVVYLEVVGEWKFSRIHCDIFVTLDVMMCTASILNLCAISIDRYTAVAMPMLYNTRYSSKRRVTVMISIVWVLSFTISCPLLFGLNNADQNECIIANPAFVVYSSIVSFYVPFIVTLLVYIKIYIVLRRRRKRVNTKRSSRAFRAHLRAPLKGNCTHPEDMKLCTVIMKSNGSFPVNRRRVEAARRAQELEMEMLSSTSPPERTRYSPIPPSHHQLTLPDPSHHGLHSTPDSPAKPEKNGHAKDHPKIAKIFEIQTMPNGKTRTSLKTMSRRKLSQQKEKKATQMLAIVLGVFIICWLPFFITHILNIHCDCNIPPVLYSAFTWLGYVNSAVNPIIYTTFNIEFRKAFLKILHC

[8] = molecular target: Serotonin 2 (5-HT2) receptor (Rattus norvegicus, UniProt P30994+P08909+P14842); assay: Inhibition of [3H]- Ketanserin binding against rat brain 5-hydroxytryptamine 2 receptor
[9] = molecular target: T3, Alpha-2A adrenergic receptor (Homo sapiens, UniProt P08913); assay: Inhibition of [3H]- MK-912 binding against human recombinant Alpha-2A adrenergic receptor
T3 sequence (P08913 whole entry): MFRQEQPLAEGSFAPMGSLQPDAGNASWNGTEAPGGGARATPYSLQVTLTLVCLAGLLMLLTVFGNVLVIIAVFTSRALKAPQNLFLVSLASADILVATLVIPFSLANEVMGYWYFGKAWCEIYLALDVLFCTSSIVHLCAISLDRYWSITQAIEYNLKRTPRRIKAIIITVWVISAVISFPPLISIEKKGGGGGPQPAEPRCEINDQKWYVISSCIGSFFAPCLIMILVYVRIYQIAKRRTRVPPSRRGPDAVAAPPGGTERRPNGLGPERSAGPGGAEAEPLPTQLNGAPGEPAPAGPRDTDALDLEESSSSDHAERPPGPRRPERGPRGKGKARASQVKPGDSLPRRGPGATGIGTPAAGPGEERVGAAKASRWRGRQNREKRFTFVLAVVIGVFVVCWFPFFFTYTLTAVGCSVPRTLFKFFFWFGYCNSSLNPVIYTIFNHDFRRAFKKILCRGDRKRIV

[10] = molecular target: Sigma intracellular receptor 2 (Rattus norvegicus, UniProt Q5U3Y7); assay: Inhibition of [3H]- Ifenprodil binding against rat brain Sigma opioid receptor type 2
Sequence of Sigma intracellular receptor 2 (Q5U3Y7 whole entry, looked up): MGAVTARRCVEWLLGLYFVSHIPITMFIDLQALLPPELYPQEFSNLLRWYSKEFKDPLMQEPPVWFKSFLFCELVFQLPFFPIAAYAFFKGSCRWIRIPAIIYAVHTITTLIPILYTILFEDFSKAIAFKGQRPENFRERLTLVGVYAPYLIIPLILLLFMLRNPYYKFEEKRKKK

[11] = molecular target: T4, Alpha-1B adrenergic receptor (Rattus norvegicus, UniProt P15823); assay: Inhibition of [3H]- prazosin binding against Alpha-1B adrenergic receptor from rat liver
T4 sequence (P15823 whole entry): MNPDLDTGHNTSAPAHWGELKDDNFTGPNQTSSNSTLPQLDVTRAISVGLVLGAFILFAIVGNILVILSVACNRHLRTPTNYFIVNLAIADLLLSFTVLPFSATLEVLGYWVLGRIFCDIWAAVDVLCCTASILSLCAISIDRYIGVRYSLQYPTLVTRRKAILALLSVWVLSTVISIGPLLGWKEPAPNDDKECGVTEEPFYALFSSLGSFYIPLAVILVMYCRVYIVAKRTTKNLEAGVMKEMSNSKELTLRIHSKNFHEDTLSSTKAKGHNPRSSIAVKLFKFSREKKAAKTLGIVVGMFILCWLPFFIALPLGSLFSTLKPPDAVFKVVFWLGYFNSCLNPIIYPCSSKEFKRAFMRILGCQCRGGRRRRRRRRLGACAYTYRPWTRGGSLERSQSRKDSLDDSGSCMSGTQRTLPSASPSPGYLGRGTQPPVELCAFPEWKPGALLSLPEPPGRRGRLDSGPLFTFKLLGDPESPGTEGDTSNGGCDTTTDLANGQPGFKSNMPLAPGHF

[12] = molecular target: T5, Muscarinic acetylcholine receptor M5 (Homo sapiens, UniProt P08912); assay: Inhibition of [3H]- NMS binding against human recombinant Muscarinic acetylcholine receptor M5
T5 sequence (P08912 whole entry): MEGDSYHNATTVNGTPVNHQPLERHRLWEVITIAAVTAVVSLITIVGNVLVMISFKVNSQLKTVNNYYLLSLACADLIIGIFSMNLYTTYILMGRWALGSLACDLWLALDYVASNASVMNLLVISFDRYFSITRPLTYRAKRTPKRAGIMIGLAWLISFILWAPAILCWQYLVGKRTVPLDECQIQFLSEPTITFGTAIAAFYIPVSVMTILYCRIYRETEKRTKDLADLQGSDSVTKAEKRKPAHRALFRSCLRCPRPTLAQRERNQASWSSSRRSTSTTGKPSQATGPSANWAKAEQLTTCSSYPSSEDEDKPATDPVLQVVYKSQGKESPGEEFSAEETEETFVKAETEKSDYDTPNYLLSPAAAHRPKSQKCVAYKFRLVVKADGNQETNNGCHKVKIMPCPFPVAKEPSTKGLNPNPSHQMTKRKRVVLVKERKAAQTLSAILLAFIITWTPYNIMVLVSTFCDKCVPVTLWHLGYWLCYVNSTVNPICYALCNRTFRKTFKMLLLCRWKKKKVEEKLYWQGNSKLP

[13] = molecular target: T6, Alpha-1A adrenergic receptor (Rattus norvegicus, UniProt P43140); assay: Inhibition of [3H]- prazosin binding against Alpha-1A adrenergic receptor from rat submaxillary gland
T6 sequence (P43140 whole entry): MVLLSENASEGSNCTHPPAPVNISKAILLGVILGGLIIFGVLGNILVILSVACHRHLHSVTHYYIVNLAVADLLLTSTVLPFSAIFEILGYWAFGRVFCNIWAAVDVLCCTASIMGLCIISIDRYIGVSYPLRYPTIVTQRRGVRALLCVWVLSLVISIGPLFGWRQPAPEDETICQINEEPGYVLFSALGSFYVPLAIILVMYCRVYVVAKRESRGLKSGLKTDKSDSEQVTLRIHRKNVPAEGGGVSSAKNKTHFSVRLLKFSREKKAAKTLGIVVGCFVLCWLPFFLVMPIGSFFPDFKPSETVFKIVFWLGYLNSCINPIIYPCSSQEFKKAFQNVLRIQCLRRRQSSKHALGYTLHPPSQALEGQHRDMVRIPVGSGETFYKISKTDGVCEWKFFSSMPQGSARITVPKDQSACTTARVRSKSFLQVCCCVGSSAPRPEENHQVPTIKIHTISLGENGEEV

[14] = molecular target: T7, Alpha-2B adrenergic receptor (Rattus norvegicus, UniProt P19328); assay: Inhibition of [3H]- Yohimbine binding against rat kidney cortex Alpha-2B adrenergic receptor
T7 sequence (P19328 whole entry): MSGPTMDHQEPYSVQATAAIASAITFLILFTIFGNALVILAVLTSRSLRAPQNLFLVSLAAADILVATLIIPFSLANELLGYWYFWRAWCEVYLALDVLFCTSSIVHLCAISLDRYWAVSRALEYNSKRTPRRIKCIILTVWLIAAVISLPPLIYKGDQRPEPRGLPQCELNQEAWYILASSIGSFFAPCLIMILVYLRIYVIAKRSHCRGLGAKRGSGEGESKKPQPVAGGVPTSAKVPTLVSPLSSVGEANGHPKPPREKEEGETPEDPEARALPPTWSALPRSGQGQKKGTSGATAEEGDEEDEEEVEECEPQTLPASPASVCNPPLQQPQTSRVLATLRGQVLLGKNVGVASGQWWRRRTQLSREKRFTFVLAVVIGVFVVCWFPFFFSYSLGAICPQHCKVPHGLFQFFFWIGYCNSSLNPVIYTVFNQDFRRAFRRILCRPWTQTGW

Row | Structure (SMILES) | Ki (D(4) dopamine receptor) [nM] | Ki (D(3) dopamine receptor) [nM] | Change (Rattus norvegicus [1]) [%] | Change (Rattus norvegicus [2]) [%] | further results
1 | Cc1ccc(C2CCN(Cc3ccc4c(c3)OCC(=O)N4)CC2)cc1 | 2.6 | 232 |  |  | 
2 | Cc1ccc(C2CCN(Cc3ccc4c(c3)OCC(=O)N4)CC2)cc1C | 2.6 | 859 | 99 | 103 | 
3 | COc1ccc(N2CCN(Cc3ccc4c(c3)NC(=O)CO4)CC2)cc1 |  | > 3030 |  |  | Change (Rattus norvegicus [3]): 91%; Change (Rattus norvegicus [4]): 110%
4 | Cc1ccc(N2CCN(Cc3ccc4c(c3)OCC(=O)N4)CC2)cc1C |  | 78.5 |  |  | 
5 | COc1ccc(C2CCN(Cc3ccc4c(c3)OCC(=O)N4)CC2)cc1 | 6.7 | 428 |  |  | Change (Rattus norvegicus [5]): 132%; Change (Rattus norvegicus [6]): 126%
6 | Cc1ccc(N2CCN(Cc3ccc4c(c3)OCC(=O)N4)CC2)cc1 |  | 208 | 140 | 133 | 
7 | Cc1ccc(N2CCN(Cc3ccc4c(c3)NC(=O)CO4)CC2)cc1 | 4.3 | 2490 |  |  | Change (Rattus norvegicus [5]): 89%; Change (Rattus norvegicus [6]): 111%
8 | COc1ccc(C2CCN(Cc3ccc4c(c3)NC(=O)CO4)CC2)cc1 |  | > 3030 |  |  | Change (Rattus norvegicus [3]): 93%; Change (Rattus norvegicus [4]): 96%
9 | Cc1ccc(N2CCN(Cc3ccc4c(c3)NC(=O)CO4)CC2)cc1C |  | 864 | 126 | 122 | 
10 | O=C1COc2cc(CN3CCN(c4ccc(Cl)cc4)CC3)ccc2N1 | 4.3 | 679 | 110 | 146 | IC50 [7]: 1400 nM; Ki [7]: 792 nM; Ki (D(2) dopamine receptor): 413 nM; IC50 [8]: 2700 nM; Ki [8]: 1678 nM; IC50 [9]: 1100 nM; Ki [9]: 411 nM; IC50 [10]: 375 nM; Ki [10]: 231 nM; IC50 [11]: 1420 nM; Ki [11]: 787 nM; IC50 [12]: 1340 nM; Ki [12]: 964 nM; IC50 [13]: 500 nM; Ki [13]: 203 nM; IC50 [14]: 630 nM; Ki [14]: 368 nM
11 | Cc1ccc(C2CCN(Cc3ccc4c(c3)NC(=O)CO4)CC2)cc1C | 1.8 | > 3030 |  |  | Change in DA synthesis (Rattus norvegicus [1]): 104%; Change in DA synthesis (Rattus norvegicus [2]): 128%
12 | Cc1ccc(C2CCN(Cc3ccc4c(c3)NC(=O)CO4)CC2)cc1 | 2.8 | > 3030 |  |  | 
13 | O=C1COc2ccc(CN3CCN(c4ccc(Cl)cc4)CC3)cc2N1 | 62.4 | > 3030 |  |  | 
14 | O=C1COc2ccc(CN3CCN(c4ccccc4)CC3)cc2N1 | 18.3 | 839 |  |  | 
15 | COc1ccc(N2CCN(Cc3ccc4c(c3)OCC(=O)N4)CC2)cc1 | 5 | 1790 | 104 | 122 | Ki (D(2) dopamine receptor): > 5880 nM
16 | O=C1COc2cc(CN3CCN(c4ccccc4)CC3)ccc2N1 | 6.1 | 10.4 |  |  | 
